Measurements as given in patent US20190093079A1, “METHODS FOR CONTROLLED PROLIFERATION OF STEM CELLS / GENERATING INNER EAR HAIR CELLS USING GSK-3-ALPHA INHIBITORS” (Frequency Therapeutics, Inc., priority 2016, published 2019).
Entries after “also recorded” stand apart in the source; their conditions may differ.

Experiments:
GSK3-alpha [1] = target: T1, GSK3-alpha (Homo sapiens, UniProt P49840); details: cited from earlier work; for IC50: potency = IC50, literature values
noise-damaged inner ear = assay: Hearing recovery (ABR threshold) in noise damaged CBA/CaJ mice; type: in vivo; details: trans-tympanic Poloxamer gel 24 h after noise exposure, ABR at 30 days, 5-40 kHz; FIG. 4
Protocol: For the mouse studies, a 17-19% (w/w) stock solution of poloxamer 407 gel (Sigma-Aldrich) was prepared by slowly adding it to cold 1× phosphate-buffered saline at pH 7.4. This solution is liquid when refrigerated or at room temperature but solidifies at body temperature. The gel was tinted blue with Evans blue dye (50 ppm) for visualization during administration.
A formulation was then prepared with 87.6 mg/ml VPA and 55.6 mg/ml CHIR99021 or 87.6 mg/ml VPA and 50 mg/ml GSK3 inhibitor XXII in 17-19% Poloxamer 407 with 5% DMSO.
CBA/CaJ mice were deafened in a noise chamber by exposure to an 8-16 kHz octave band noise band for 2 hours at 120 dB SPL. 24 hours after noise exposure, their hearing was assessed by measuring auditory brainstem responses (ABRs). The minimum sound pressure level (SPL) required for visual detection of ABR Wave I was determined at 5, 10, 20, 28.3, and 40 kHz. Following ABR measurements, a trans-tympanic injection of a Poloxamer gel drug mixture was delivered to fill the middle ear cavity. After 30 days, ABR was assessed and the improvement in hearing threshold from 24 hrs to 30 days after noise exposure was determined.

[2] = test system: Lgr5-GFP inner ear progenitor cells; assay: Expansion of Lgr5-GFP inner ear progenitor cells in Matrigel 3D culture; type: cell-based, mouse; details: 10 days culture, background of EGF, bFGF, IGF-1 and VPA; FIGS. 1A and 2A
Protocol: Isolation of stem cells from the inner ear: All animal studies were conducted under an approved institutional protocol according to National Institutes of Health guidelines. For experiments with neonatal mice (postnatal days 1-3), the cochleae were dissected in HBSS and the organ of Corti was separated from the stria vascularis and the modiolus. The organs of Corti were then treated with Cell Recovery Solution (Corning) for 1 h to separate cochlear epithelium from the underlying mesenchyme. Epithelia were then collected and treated with TrypLE (Life Technologies) for 15-20 minutes at 37° C. Single cells obtained by mechanical trituration were filtered (40 μm) and suspended in Matrigel (Corning) for 3D culture.
Cells were cultured in a 1:1 mixture of DMEM and F12, supplemented with Glutamax (GIBCO), N2, B27 (Invitrogen), EGF (50 ng/mL; Chemicon), bFGF (50 ng/mL; Chemicon), IGF1 (50 ng/mL; Chemicon) and a GSK3-alpha inhibitor. […]
Lgr5-positive cells were quantified after 10 days (D10) in culture in multiple conditions. […] The cells were then stained with propidium iodide (PI) and analyzed using a flow cytometer for Lgr5-GFP expression. The number of GFP-positive cells and the percentage of GFP-positive cells were quantified. […]
Lgr5 cell quantification: Cell culture media was removed and Tryple was added. […] Live Lgr5-GFP cell number was counted using PI staining and the Lgr5-GFP.

[3] = test system: organ of Corti isolated from Lgr5-GFP mice; assay: Cochlear explant: organ of Corti treated ex vivo; type: cell-based, mouse
Protocol: For cochlear explant studies, organ of Corti isolated from Lgr5-GFP mice were treated with either CHIR99021+VPA or GSK3-inhibitor XXII+VPA for 3 days. Organ of Corti were plated on a cover slip and bathed in media containing the drugs. Growth factors were not present. CHIR99021 (3 uM), GSK3-inhibitor XXII (0.3 uM), VPA (1 mM).

GSK3-beta = GSK3-beta (Homo sapiens, UniProt P49841); details: potency = IC50; literature values; cited from earlier work
GSK3-beta, sequence (P49841 whole entry, species assumed): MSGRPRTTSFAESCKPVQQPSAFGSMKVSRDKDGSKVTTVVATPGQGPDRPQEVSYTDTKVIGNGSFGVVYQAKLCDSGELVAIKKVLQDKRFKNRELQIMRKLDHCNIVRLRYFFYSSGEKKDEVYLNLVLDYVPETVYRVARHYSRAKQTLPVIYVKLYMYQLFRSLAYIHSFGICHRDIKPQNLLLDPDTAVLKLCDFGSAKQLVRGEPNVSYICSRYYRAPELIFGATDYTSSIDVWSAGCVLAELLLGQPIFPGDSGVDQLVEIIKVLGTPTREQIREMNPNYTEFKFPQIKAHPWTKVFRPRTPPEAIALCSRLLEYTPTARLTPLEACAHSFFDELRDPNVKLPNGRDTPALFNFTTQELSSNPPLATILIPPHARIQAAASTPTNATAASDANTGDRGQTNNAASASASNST

GSK3-alpha [4] = target: T1, GSK3-alpha; assay: GSK3-alpha potency (IC50), kinase assay; type: biochemical; details: GSK3-alpha/GSK3-beta selectivity ratio = IC50 GSK3-beta divided by IC50 GSK3-alpha

T1 sequence (P49840 whole entry, species assumed): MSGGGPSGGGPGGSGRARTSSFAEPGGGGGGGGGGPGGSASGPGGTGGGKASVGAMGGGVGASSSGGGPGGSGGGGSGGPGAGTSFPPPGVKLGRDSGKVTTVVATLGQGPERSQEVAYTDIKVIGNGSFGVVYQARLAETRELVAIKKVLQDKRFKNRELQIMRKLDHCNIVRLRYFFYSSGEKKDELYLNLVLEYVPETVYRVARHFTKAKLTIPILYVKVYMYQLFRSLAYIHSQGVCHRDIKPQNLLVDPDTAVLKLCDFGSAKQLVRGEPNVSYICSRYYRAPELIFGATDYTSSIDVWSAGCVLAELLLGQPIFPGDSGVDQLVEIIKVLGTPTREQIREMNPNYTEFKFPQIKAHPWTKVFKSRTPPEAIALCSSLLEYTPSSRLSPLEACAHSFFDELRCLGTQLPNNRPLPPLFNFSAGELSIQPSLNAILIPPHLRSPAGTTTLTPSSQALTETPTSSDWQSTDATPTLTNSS

SMILES	GSK3α versus GSK3β inhibition preference (GSK3-alpha [1])	IC50 (GSK3-alpha [1]) [nM]	Expansion of Lgr5-GFP cells / Lgr5-GFP+ colonies [2]	IC50 (GSK3-beta) [nM]	further results
Cc1ccc(C(=O)Nc2c[nH]nc2C(=O)NCCCOC(C)C)cn1 [GSK-3b XXII]	equally inhibits GSK3α and GSK3β	2.3	large colonies of Lgr5-GFP+ cells were observed	–	hearing recovery (noise-damaged inner ear): evidence of hearing recovery; Lgr5-GFP expression in organ of Corti ([3]; 3 days, 0.3 uM with VPA 1 mM, FIG. 3): increased Lgr5-GFP expression; rows of inner hair cells ([3]; 3 days, normal 1 row, FIG. 3): 2 rows; rows of outer hair cells ([3]; 3 days, normal 3 rows, FIG. 3): 6 rows; hair cell number in organ of Corti ([3]; in combination with VPA, FIG. 3, listed as GSK3 inhibitor XXII): increase in hair cell number; also recorded: increased number of hair cells
O=C1NC(=O)[C@@H](c2cn3c4c(cccc24)CCC3)[C@@H]1c1c[nH]c2ccccc12 [Tivantinib]	–	659	–	1870	–
Cc1c[nH]c(-c2cnc(NCCNc3ccc(C#N)cn3)nc2-c2ccc(Cl)cc2Cl)n1 [CHIR99021]	preferentially inhibits GSK3β	–	–	–	–
N#Cc1ccc2[nH]c(O)c(-c3ccc(CN4CCOCC4)cn3)c2c1 [AZD1080]	preferentially inhibits GSK3α	–	large colonies of Lgr5-GFP+ cells were observed	–	–
COc1ccccc1[C@@H]1C2=C(CC(C)(C)CC2=O)Nc2n[nH]c(C(F)(F)F)c21 [BRD1172]	–	3	–	10	Ratio of Alpha to Beta (GSK3-alpha [4]): 3.3
